Entries after “also recorded” stand apart in the source; their conditions may differ.
Key:
nitrosative stress = assay: Nitrosative stress (protein nitration, 3-NT antibody) in yeast synucleinopathy model; format: cell-based
Aβ peptide = assay: Yeast growth rescue, Aβ peptide proteinopathy model; format: cell-based
Method: (A) Structure of lead compound ABI. (B) Dose-response curves showing the relative rescue of ABI (log2, μM) in five yeast proteinopathy models. Rescue is relative to a positive control compound as determined by growth (OD600). (C) Localization of α-syn-GFP in strains with increasing toxicity: NoTox, InTox, HiTox and HiTox treated with 10 μM ABI. […] (E) (Left panel) Western blot of α-syn-GFP in NoTox, InTox, and HiTox strains with anti-α-syn antibody. (Right panel) Quantitation of western blot (α-syn relative to total protein quantitated from a Coomassie gel and normalized to 100% for HiTo). **: P<0.01; and ***: P<0.001, according to one-way ANOVA and a Tukey's test.
Yeast strains expressing toxic proteins have been described previously (6, 9, 33, 34) (Table 1). All strains have either single or multiple inserts for galactose-inducible expression. In addition, all stains have either deletions of the Δpdr1::KanMX and Δpdr3::KanMX or Δpdr5::KanMX to reduce efflux of compounds and required compound dosing. Yeast were cultured in complete synthetic media (CSM) and an appropriate dropout (minus HIS or URA) to maintain plasmids if required. […]
Starting cultures for all dose-response assays were established as described above. […] Plates were then read with a Tecan Saphire plate reader at OD600.

α-syn = assay: Western blot of α-syn levels in yeast; format: cell-based; details: α-syn-expressing yeast
Method: Protein analysis of α-syn-GFP was performed in NoTox, InTox, and HiTox strains with ABI1 treatment at indicated concentrations. Log phase CSM/2% raffinose cultures were induced with 2% galactose for 5 hours with DMSO or ABI1. Cultures were normalized to cell density and cell pellets prepared for SDS-PAGE. Cell pellets were boiled in SDS-loading dye for 15′, centrifuged, and resolved by 4-12% SDS-PAGE. […] From the same gel, total protein was detected by coomassie staining. Both blots and coomassie-stained gels were scanned using the Li-Cor Odyssey imaging system and quantitated. Values were expressed as α-syn normalized to total protein (FIG. 1E). Significance was determined using a one-way ANOVA with Tukey's test of significance.

Cpy = assay: CPY western blot, ER-to-Golgi trafficking in α-syn yeast; format: cell-based; details: α-syn-expressing yeast
Method: CPY western blots were performed using culture conditions as described above. An anti-Cpy antibody (Invitrogen, A6428) was used at 1:5,000. Post-ER:ER ratios were quantitated using an IRDye800 secondary antibody (Li-Cor Odyssey, Rockland Immunochemicals) and scanned with the Li-Cor Odyssey imaging system. Significance was determined using a one-way ANOVA and Tukey's test of significance.

Nedd4 = molecular target: T1, Nedd4 (Homo sapiens, UniProt P46934); details: pers. comm.; cited from earlier work
T1 sequence (P46934 1-1319): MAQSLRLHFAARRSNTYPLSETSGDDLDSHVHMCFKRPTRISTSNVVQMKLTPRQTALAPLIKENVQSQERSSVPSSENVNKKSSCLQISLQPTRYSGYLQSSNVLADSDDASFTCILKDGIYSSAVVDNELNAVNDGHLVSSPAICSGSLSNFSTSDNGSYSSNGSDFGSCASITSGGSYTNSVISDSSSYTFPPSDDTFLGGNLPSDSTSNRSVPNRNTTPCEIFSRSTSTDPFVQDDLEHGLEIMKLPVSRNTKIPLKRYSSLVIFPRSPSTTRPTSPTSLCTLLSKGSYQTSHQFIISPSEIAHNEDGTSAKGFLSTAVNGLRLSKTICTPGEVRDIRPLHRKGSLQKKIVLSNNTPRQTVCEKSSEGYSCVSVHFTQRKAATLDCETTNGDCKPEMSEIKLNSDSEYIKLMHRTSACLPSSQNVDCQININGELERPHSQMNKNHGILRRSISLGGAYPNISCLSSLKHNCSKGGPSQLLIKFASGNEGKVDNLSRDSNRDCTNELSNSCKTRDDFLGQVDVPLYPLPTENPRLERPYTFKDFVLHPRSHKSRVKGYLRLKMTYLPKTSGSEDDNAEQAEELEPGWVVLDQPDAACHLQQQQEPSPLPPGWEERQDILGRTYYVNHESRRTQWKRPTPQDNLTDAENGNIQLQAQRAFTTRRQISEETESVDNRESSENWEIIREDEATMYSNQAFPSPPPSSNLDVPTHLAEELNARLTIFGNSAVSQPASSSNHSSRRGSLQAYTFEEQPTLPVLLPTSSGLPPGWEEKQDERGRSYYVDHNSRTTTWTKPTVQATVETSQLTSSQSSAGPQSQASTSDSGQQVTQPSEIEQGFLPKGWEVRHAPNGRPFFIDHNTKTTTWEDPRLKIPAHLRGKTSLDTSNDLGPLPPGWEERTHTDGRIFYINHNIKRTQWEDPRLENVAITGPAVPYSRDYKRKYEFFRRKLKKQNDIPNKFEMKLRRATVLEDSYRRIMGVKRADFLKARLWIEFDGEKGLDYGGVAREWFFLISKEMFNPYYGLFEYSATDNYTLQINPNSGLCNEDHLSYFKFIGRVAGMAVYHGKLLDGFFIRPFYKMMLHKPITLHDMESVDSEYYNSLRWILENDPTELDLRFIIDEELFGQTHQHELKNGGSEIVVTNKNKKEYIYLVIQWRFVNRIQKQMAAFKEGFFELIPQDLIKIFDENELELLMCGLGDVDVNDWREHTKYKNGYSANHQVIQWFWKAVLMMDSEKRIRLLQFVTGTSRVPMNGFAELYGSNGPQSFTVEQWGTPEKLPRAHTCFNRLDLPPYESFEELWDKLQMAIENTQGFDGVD

aSyn^A53T iPS neurons = assay: ER protein trafficking (nicastrin, GCase, Endo H) in patient iPS neurons; details: human cortical neurons from iPSCs of a patient carrying α-syn mutations
Method: Trafficking from ER was assessed by probing for nicastrin and GCase with or without Endo H treatment. Data are normalized using corrected/A53T ratios established in FIG. 6 to more faithfully depict the biological significance of the small molecule effects (n=3). […] All data represented as mean±SEM (*: p<0.05; **: p<0.01, two tail t-test compared to control condition).
Trafficking from ER was assessed by probing for nicastrin and GCase with or without Endo H treatment.

Bap2 = assay: Western blot of proteinA-tagged Bap2; format: cell-based, yeast; details: Rsp5-dependent

## Cc1cccc(-n2cnc3cc(C(=O)NCc4ccccc4Cl)ccc32)c1 [ABI, N-(2-chlorobenzyl)-1-(m-tolyl)-1H-benzo[d]imidazole-5-carboxamide]
Nitrosative stress
  nitrosative stress: prevented the generation of highly localized nitrosative stress
Aβ peptide
  efficacy against Aβ peptide: not, however, effective
α-syn
  α-syn levels: did not reverse α-syn phenotypes by reducing α-syn levels; also recorded: did not detect changes
Cpy
  ER-to-Golgi trafficking (Cpy) / forward protein trafficking through the ER: directly ameliorated an ER-Golgi trafficking block
Nedd4
  ubiquitination of recombinant Nedd4 in vitro: did not enhance ubiquitination
aSyn^A53T iPS neurons
  ER-to-Golgi protein trafficking defect: ameliorated an ER-to-Golgi protein trafficking defect
Bap2
  Bap2 levels / degradation: promotes Bap2 degradation

Reference: patent US9790188B2, “Benzimidazole derivatives and uses thereof” (Whitehead Institute for Biomedical Research, priority 2013, dated 2017)
